According to article PMC2848619, “The Combinatorial PP1-Binding Consensus Motif (R/K)x (0,1)V/IxFxx(R/K)x(R/K) Is a New Apoptotic Signature” (PLoS ONE, 2010):
Each block holds one compound with its values, some of them ahead of it. Where a SMILES comes first, the peptide text is derived from it. Where no end group is shown, it is not given here. The star is where a group is joined. Biotin = O=C1N[C@H]2[C@H](CS[C@H]2CCCCC(=O)*)N1

Assays:
HeLa cells = assay: Quantification of peptide internalization: intracellular delivery of streptavidin-peroxidase (OPD); type: cell-based, human; details: 6 hrs at 37°C, compared with TAT peptide
Procedure: Before incubation, the peptides were preincubated for 1 h with streptavidin HRP conjugate in a 4/1 ratio. Cells at 80% confluence were incubated with different concentrations of peptide in 24-well plates. After 6 h, cells were washed twice in PBS, trypsinized (Trypsin EDTA, Invitrogen) and harvested in 1 ml of PBS and counted. Cells were lysed in 300 µl of 0.1 M Tris pH 7.4, and 0.5% Nonidet P-40 buffer for 10 min on ice. A total of 50 µl of cell lysate was mixed with 50 µl of OPD buffer (51.4 mM Na2HPO4 and 24.3 mM citric acid) then mixed with 100 µl of OPD solution (one OPD tablet from Sigma (St. Louis MO) in 100 ml of OPD buffer to which 40 µl of 30% hydrogen peroxide was added just before use). After 10 to 20 min, the reaction was stopped by adding 100 µl of 1 M HCl, and optical density was read at 490 nm.

PP1c [1] = assay: Pull down assay of biotinylated peptides with PP1c from HeLa cell extracts; type: binding, human; details: peptide 100 µM on streptavidin magnetic beads, HeLa cell lysate, 2 h 4°C, western blot with PP1 antibodies
Procedure: Biotinylated peptides were pre-incubated for 2 h at 100 µM (final concentration with lysate) and room temperature with 30 µl of streptavidin-coated immunomagnetic beads (Calbiochem, San Diego CA). During this time, 1×10^6 HeLa cells at 90% of confluence per test peptide were washed with PBS, trypsinized, harvested with PBS, washed with 1 ml of PBS, and centrifuged at 600 g and 4°C for 10 min. Cell pellets were lysed 10 min on ice with 400 µl of lysis buffer (50 mM Tris pH 7.4, 200 mM NaCl, 10 mM EDTA, 20% Glycerol, 1% Nonidet P-40, 1 mM phenylmethylsulfonyl fluoride (PMSF), 10 mM NaF, 1 mM orthovanadate, and “complete mini EDTA free” protease inhibitor cocktail from Roche). Lysates were clarified at 13,000 g for 10 min at 4°C and after rotation with supernatant at 4°C for 2 h, biotinylated peptides were pulled down with streptavidine magnetic beads and washed twice with 750 µl of lysis buffer. Bound proteins and clarified lysates were analyzed by western blotting using PP1 antibodies.

PP1c [2] = assay: PP1c binding of DPT-APAF peptides (abstract only); details: stated in abstract only
[3] = Apoptotic effect of DPT-APAF peptides (abstract only); type: cell-based; details: stated in abstract only

Compound: CC[C@H](C)[C@H](NC(=O)[C@@H](NC(=O)CNC(=O)[C@H](CCCCN)NC(=O)CCCC[C@@H]1SC[C@@H]2NC(=O)N[C@@H]21)C(C)C)C(=O)N[C@@H](Cc1ccccc1)C(=O)N[C@@H](Cc1ccc(O)cc1)C(=O)N[C@@H](CC(C)C)C(=O)N[C@@H](CCCNC(=N)N)C(=O)N[C@@H](CC(=O)O)C(=O)N[C@@H](CCCCN)C(=O)O [DPT-AIF1] (Biotin-KGVIFYLRDK-OH)
Ability to internalize Streptavidin-HRP conjugated molecules (in words) (HeLa cells): able to internalize Streptavidin-HRP conjugated molecules even more efficiently than the well characterized positive control TAT peptide

Ability to internalize Streptavidin-HRP conjugated molecules (in words) (HeLa cells): not DPT-AIF2
Compound: CC[C@H](C)[C@H](NC(=O)[C@@H](NC(=O)CNC(=O)[C@H](CCCCN)NC(=O)CCCC[C@@H]1SC[C@@H]2NC(=O)N[C@@H]21)C(C)C)C(=O)N[C@@H](C)C(=O)N[C@@H](Cc1ccc(O)cc1)C(=O)N[C@@H](CC(C)C)C(=O)N[C@@H](CCCNC(=N)N)C(=O)N[C@@H](CC(=O)O)C(=O)N[C@@H](CCCCN)C(=O)O [DPT-AIF2] (Biotin-KGVIAYLRDK-OH)

Compound: DPT-AIF4: mutated peptide of 8 accessible residues of AIF564–571 containing the F566A mutation (Biotin-VIAYLRDK)
Co-precipitation of PP1c with biotinylated peptide (PP1c [1]): unable to co-precipitate PP1c

PP1c binding (PP1c [2]): PP1-interacting
Compound: DPT-APAF1: bi-partite cell penetrating peptide containing APAF-1_122–131 linked to DPT-sh1 peptide shuttle (RPVVFVTRKK; also: linked to DPT-sh1 shuttle peptide, junction not given here; UniProt O14727 122-131, looked up, fragment)
Apoptotic effect [3]: death molecule
